Reference: patent US20240092739A1, “COMPOUNDS AND METHODS OF USE” (Ferro Therapeutics, Inc, priority 2020, published 2024)
Like-named read-outs stand apart in the source and are kept apart here.

Columns and labels:
[1] = system: 786-O (renal cell carcinoma) cells; assay: Cell proliferation (Alamar Blue) assay, 786-O cells; type: cell-based; conditions: Homo sapiens
Protocol: (§1) Cell viability assay was performed to assess the potency of the compounds in human cancer cell lines 786-0 (renal cell carcinoma) and SJSA-1 (osteosarcoma). Additional cell lines, such as pancreatic cancer cell lines (Panc 02.13, BxPC-3, Panc 12, Panc 02.03, Panc 6.03, PSN-1, HPAC, and Capan-1), prostate cancer cell lines (PC-3, DU145, […], NCI-H660, 1PH1 LNCaP, BM-1604, and MDA PCa 2b), etc., can be tested in a similar method.
(§2) Cells (SJSA-1, 786-0 and A431) were seeded (5000 cells/100 μL/well) in 96-well tissue culture plate and incubated at 37° C./500 CO2 for 16-24 hours. The cells were then treated with compounds (25 μL of 5×). The compound concentrations were 10-0.0005 μM prepared in 3-fold serial dilutions with final DMSO concentration of 1%. The plates were then incubated for 24 h at 37° C./[…] in a moist environment. Then Alamar Blue™ reagent (final concentration 1×-12.5 μL) was added to each well and incubated for 1.5 hours at 37° C./500 CO2. The plates were read on fluorescence reader at 540 nm excitation and 590 nm emission wavelengths. The IC50 values were subsequently determined using a sigmoidal dose-response curve (variable slope) in GraphPad Prism® 5 software. Tables A-3 and B-11 show cell proliferation data for exemplary compounds as described herein.

[2] = system: 786-O cells + Ferrastatin-1; assay: GPX4 inhibition assay: cell proliferation (Alamar Blue) in 786-O cells with ferrostatin rescue; type: cell-based, human; conditions: 786-O cells with Ferrastatin-1 (rescue), read-out: Cell proliferation IC50 (μM) 786-O + Ferrastatin-1
Protocol: as §2
Studies have shown that lipophilic antioxidants, such as ferrostatin, can rescue cells from GPX4 inhibition-induced ferroptosis. For instance, mesenchymal state GPX4-knockout cells can survive in the presence of ferrostatin, however, when the supply of ferrostatin is terminated, these cells undergo ferroptosis (see, e.g., Viswanathan et al., Nature 547:453-7, 2017). […] Accordingly, the ability of a molecule to induce ferroptotic cancer cell death, and that such ability is admonished by the addition of ferrostatin, is clear indication that the molecule is an GPX4 inhibitor. Cell proliferation data for exemplary compounds with and without ferrostatin can be seen in Table A-3.

A431 cells = assay: Cell proliferation (Alamar Blue) assay, A431 cells; type: cell-based; conditions: Homo sapiens
Protocol: as §1, §2

[3] = 786-0, 786-O cells, 24 h compound incubation, Alamar Blue, read-out: Cell proliferation IC50 (μM) 786-O
[4] = A-431, A431 cells, 24 h compound incubation, Alamar Blue, read-out: Cell proliferation IC50 (μM) A431
[5] = 786-0, 786-O cells, 24 h compound treatment, Alamar Blue, read-out: IC50 (μM) 786-O
[6] = A-431, A431 cells, 24 h compound treatment, Alamar Blue, read-out: IC50 (μM) A431

Row | IC50 [1, 5] [µM] | IC50 (A431 cells; [6]) [µM] | SMILES | further results
1 | – | – | COc1ccc2c(c1)C[C@H](C1CCC1)N(C(=O)C#C[Si](C)(C)C)[C@@H]2c1ccc(NC23CC4CC(CC(C4)C2)C3)cc1 (stereo in doubt) [Compound A-8, 1-((1R,3R)-1-(4-(((3S,5S,7S)-adamantan-1-yl)amino)phenyl)-3-cyclobutyl-6-methoxy-3,4-dihydroisoquinolin-2(1H)-yl)-3-(trimethylsilyl)prop-2-yn-1-one] | IC50 [1, 3]: 0.064 µM; IC50 [2]: 5.05 µM; IC50 (A431 cells; [4]): 4.79 µM
2 | – | – | CCCC[C@H]1Cc2cc(OC)ccc2[C@@H](c2ccc(NC34CC5CC(CC(C5)C3)C4)c(C#N)c2)N1C(=O)C#C[Si](C)(C)C (stereo in doubt) [Compound A-16, 2-(((3S,5S,7S)-adamantan-1-yl)amino)-5-((1R,3S)-3-butyl-6-methoxy-2-(3-(trimethylsilyl)propioloyl)-1,2,3,4-tetrahydroisoquinolin-1-yl)benzonitrile] | IC50 [1, 3]: 0.016 µM; IC50 [2]: > 10 µM; IC50 (A431 cells; [4]): ≥ 10 µM
3 | – | – | CCCC[C@H]1Cc2cc(OC)ccc2[C@H](c2ccc(C#N)cc2)N1C(=O)C#C[Si](C)(C)C [Compound A-1] | IC50 [1, 3]: 0.043 µM; IC50 [2]: 7 µM; IC50 (A431 cells; [4]): > 10 µM
4 | – | – | CCCC[C@H]1Cc2c([nH]c3ccccc23)[C@H](c2ccc(NC3CCC3)cc2)N1C(=O)C#C[Si](C)(C)C [Compound A-2] | IC50 ([1]; 786-0, 24 h, read-out: Cell proliferation IC50 (μM) 786-O): 0.009 µM; IC50 [2]: 8.63 µM; IC50 (A431 cells; A-431, 24 h, read-out: Cell proliferation IC50 (μM) A431): > 10 µM
5 | – | – | CCC[C@H]1Cc2cc(OC)ccc2[C@H](c2ccc(NC34CC5CC(CC(C5)C3)C4)cc2)N1C(=O)C#C[Si](C)(C)C [Compound A-3] | IC50 [1, 3]: 0.029 µM; IC50 [2]: > 1 µM
6 | – | – | COc1ccc2c(c1)C[C@H](C1CCC1)N(C(=O)C#C[Si](C)(C)C)[C@H]2c1ccc(NC23CC4CC(CC(C4)C2)C3)cc1 [Compound A-7, 1-((1S,3R)-1-(4-(((3R,5R,7R)-adamantan-1-yl)amino)phenyl)-3-cyclobutyl-6-methoxy-3,4-dihydroisoquinolin-2(1H)-yl)-3-(trimethylsilyl)prop-2-yn-1-one] | IC50 [1, 3]: 0.021 µM; IC50 [2]: > 1 µM
7 | – | – | CCCC[C@H]1Cc2cc(OC)ccc2[C@H](c2ccc(NC34CC5CC(CC(C5)C3)C4)c(C#N)c2)N1C(=O)C#C[Si](C)(C)C [Compound A-15, 2-(((3R,5R,7R)-adamantan-1-yl)amino)-5-((1S,3S)-3-butyl-6-methoxy-2-(3-(trimethylsilyl)propioloyl)-1,2,3,4-tetrahydroisoquinolin-1-yl)benzonitrile] | IC50 [1, 3]: 0.021 µM; IC50 [2]: > 1 µM
8 | – | – | CCCC[C@H]1Cc2cc(OC)ccc2[C@H](c2ccc(NC3CCC3)cc2)N1C(=O)C#C[Si](C)(C)C [Compound A-25, 1-((1S,3S)-3-butyl-1-(4-(cyclobutylamino)phenyl)-6-methoxy-3,4-dihydroisoquinolin-2(1H)-yl)-3-(trimethylsilyl)prop-2-yn-1-one] | IC50 [1, 3]: 0.171 µM; IC50 [2]: > 1 µM
9 | – | – | CCCC[C@H]1Cc2cc(OC)ccc2[C@H](c2ccc(NC34CC5CC(CC(C5)C3)C4)cc2)N1C(=O)C#C[Si](C)(C)CC [Compound A-33, 1-((1S,3S)-1-(4-(((1s,3R)-adamantan-1-yl)amino)phenyl)-3-butyl-6-methoxy-3,4-dihydroisoquinolin-2(1H)-yl)-3-(ethyldimethylsilyl)prop-2-yn-1-one] | IC50 [1, 3]: 0.023 µM; IC50 [2]: > 1 µM
10 | – | – | CCCC[C@H]1Cc2cc(OC)ccc2[C@H](c2ccc(NC34CC5CC(CC(C5)C3)C4)c(Cl)c2)N1C(=O)C#C[Si](C)(C)C [Compound A-46] | IC50 [1, 3]: 0.31 µM; IC50 (A431 cells; [4]): ≥ 10 µM
11 | 0.192 | > 1 | C#CC(=O)N1[C@@H](CCCC)Cc2cc(OC)ccc2[C@H]1c1ccc(NC23CC4CC(CC(C4)C2)C3)cc1 [Compound B-2] | –
12 | 0.016 | – | C#CC(=O)N1[C@@H](c2ccc(NC34CC5CC(CC(C5)C3)C4)cc2)c2ccc(OC)cc2C[C@@H]1C1CCC1 [Compound B-4] | –
13 | 0.145 | > 1 | C#CC(=O)N1[C@@H](CCCC)Cc2cc(OC)ccc2[C@@H]1C12CC(F)(C1)C2 [Compound B-5] | –
14 | 0.067 | > 1 | C#CC(=O)N1[C@@H](CCCC)Cc2cc(OC)ccc2[C@H]1C12CC(F)(C1)C2 [Compound B-6] | –
15 | 0.021 | – | C#CC(=O)N1[C@@H](CCCC)Cc2cc(OC)ccc2[C@@H]1c1ccc(NC23CC4CC(CC(C4)C2)C3)c(C#N)c1 [Compound B-8] | –
16 | 0.06 | > 1 | C#CC(=O)N1[C@@H](CCCC)Cc2cc(OC)ccc2[C@@H]1c1ccc(N2CCC(F)(F)C2)cc1 [Compound B-14] | –

Row | IC50 [1, 5] [µM] | IC50 (A431 cells; [6]) [µM] | SMILES | further results
17 | 0.198 | 3.5 | C#CC(=O)N1CCc2cc(OC)ccc2C1c1ccccc1 (stereo not shown) [Compound B-24] | –
18 | 0.395 | > 10 | C#CC(=O)N1CCc2cc(OC)ccc2C1c1ccc(F)cc1 (stereo not shown) [Compound B-26] | –
19 | 0.18 | 7.5 | C#CC(=O)N1CCc2cc(OC)ccc2C1c1ccc(C#N)cc1 (stereo not shown) [Compound B-28] | –
20 | 0.037 | 8.73 | C#CC(=O)N1[C@@H](CCCC)Cc2cc(OC)ccc2[C@@H]1c1ccccc1 [Compound B-29] | –
21 | 0.016 | 3.67 | C#CC(=O)N1[C@@H](CCCC)Cc2cc(OC)ccc2[C@@H]1c1ccc(C#N)cc1 [Compound B-31] | –
22 | 0.42 | 3.5 | C#CC(=O)N1[C@@H](c2ccc(C#N)cc2)c2ccc(OC)cc2C[C@@H]1C [Compound B-32, 4-[(1S,3S)-6-methoxy-3-methyl-2-(prop-2-ynoyl)-1,2,3,4-tetrahydroisoquinolin-1-yl]benzonitrile] | –
23 | 0.049 | > 10 | C#CC(=O)N1[C@@H](CC2CC2)Cc2cc(OC)ccc2[C@@H]1c1ccc(C#N)cc1 [Compound B-37] | –
24 | 0.195 | > 10 | C#CC(=O)N1[C@@H](COCC)Cc2cc(OC)ccc2[C@@H]1c1ccc(C#N)cc1 [Compound B-39] | –
25 | 0.006 | 4.52 | C#CC(=O)N1[C@@H](CCCC)Cc2cc(F)ccc2[C@@H]1c1ccc(NC23CC4CC(CC(C4)C2)C3)cc1 [Compound B-40] | –
26 | 0.0035 | 3.88 | C#CC(=O)N1[C@@H](COC)Cc2cc(OC)ccc2[C@@H]1c1ccc(NC23CC4CC(CC(C4)C2)C3)cc1 [Compound B-41] | –
27 | 0.0145 | 6.58 | C#CC(=O)N1[C@@H](CCCC)Cc2ccc(OC)cc2[C@@H]1c1ccc(NC23CC4CC(CC(C4)C2)C3)cc1 [Compound B-42, 1-((1S,3S)-1-(4-(((3R,5R,7R)-adamantan-1-yl)amino)phenyl)-3-butyl-7-methoxy-3,4-dihydroisoquinolin-2(1H)-yl)prop-2-yn-1-one] | –
28 | 0.006 | 4.1 | C#CC(=O)N1[C@@H](CCC)Cc2cc(OC)ccc2[C@@H]1c1ccc(NC23CC4CC(CC(C4)C2)C3)cc1 [Compound B-43] | –
29 | 0.054 | > 1 | C#CC(=O)N1[C@@H](CCC)Cc2cc(OC)ccc2[C@H]1c1ccc(NC23CC4CC(CC(C4)C2)C3)cc1 [Compound B-44] | –
30 | 0.047 | – | C#CC(=O)N1[C@@H](COC)Cc2cc(OC)ccc2[C@H]1c1ccc(NC23CC4CC(CC(C4)C2)C3)cc1 [Compound B-45] | –
31 | 0.01 | – | C#CC(=O)N1[C@@H](CC2CC2)Cc2cc(OC)ccc2[C@@H]1c1ccc(NC23CC4CC(CC(C4)C2)C3)cc1 [Compound B-50] | –
32 | 0.072 | 4.9 | C#CC(=O)N1[C@H](c2ccc(NC34CC5CC(CC(C5)C3)C4)cc2)c2ccc(OC)cc2C[C@@H]1C1CCC1 [Compound B-51] | –
